Literature values in patent publication US20230106592A1, “METHOD FOR TREATING CANCER USING A COMBINATION OF DNA DAMAGING AGENTS AND ATR INHIBITORS” (Vertex Pharmaceuticals Incorporated, priority 2015, published 2023).
Where two headings read alike, the source gives them in different places.

Test system: ovarian cancer
Conditions: cited from earlier work

| SMILES | Outcome of prior line of treatment (ovarian cancer subject with BRCA2 germline mutation) | Outcome of prior line of treatment (monotherapy, refractory high grade serous ovarian cancer subject) |
| --- | --- | --- |
| O=C(c1cc(Cc2n[nH]c(=O)c3ccccc23)ccc1F)N1CCN(C(=O)C2CC2)CC1 [olaparib] | no response | – |
| Cn1ncnc1[C@H]1c2n[nH]c(=O)c3cc(F)cc(c23)N[C@@H]1c1ccc(F)cc1 [Talazoparib] | – | progressive disease after 10 months |
